Source: patent US9040563B2, “Dual inhibitors of farnesyltransferase and geranylgeranyltransferase I” (H. Lee Moffitt Cancer Center and Research Institute, Inc., priority 2010, dated 2015)
Like-named read-outs stand apart in the source and are kept apart here.

How the values were obtained:
farnesylation of H-Ras = assay: Whole cell inhibition of H-Ras processing (farnesylation), immunoblot, oncogenic H-Ras-transformed NIH3T3 cells; type: cell-based, mouse; conditions: Mus musculus, NIH3T3, whole cells, oncogenic H-Ras-transformed NIH3T3; n = 3 unless stated; read-out: H-Ras processing IC50
Procedure: (§1) In vitro inhibition assays for FTase and GGTase-I were conducted by measuring the incorporation of [^3H]FPP and [^3H]GGPP into recombinant H-Ras-CVLS and H-Ras-CVLL, respectively, as previously described (Vogt, et al., Protein geranylgeranylation, not farnesylation, is required for the G1 to S phase transition in mouse fibroblasts. Oncogene, 1996, 13, 1991-1999). The in vivo inhibition of farnesylation and geranylgeranylation was determined based on the level of inhibition by synthetic compounds of H-Ras and Rap1A processing, respectively (Sun, et al., Both farnesyltransferase and geranylgeranyltransferase I inhibitors are required for inhibition of oncogenic K-Ras prenylation but each alone is sufficient to suppress human tumor growth in nude mouse xenografts. Oncogene, 1998, 16, 1467-1473). […] The separated proteins were transferred to nitrocellulose and immunoblotted using an anti-Ras antibody (Y13-258) or an anti-Rap1A antibody (SantaCruz Biotechnology, Santa Cruz, Calif.), respectively. Antibody reactions were visualized using either peroxidase-conjugated goat anti-rat IgG or goat anti-rabbit IgG (Jackson ImmunoResearch, West Grove, Pa.) and an enhanced chemiluminescence detection system.
(§2) Briefly, in vitro inhibition assays for hFTase and GGTase-I were carried out by measuring the incorporation of [^3H]FPP and [^3H]GGPP into recombinant H-Ras-CVLS and H-Ras-CVLL, respectively, as described previously (Vogt et al., Protein geranylgeranylation, not farnesylation, is required for G1 to S phase transition in mouse fibroblasts. Oncogene. 1996; 13:1991-1999). Whole cell inhibition of farnesylation and geranylgeranylation were determined based on the level of inhibition by synthetic compounds of H-Ras and Rap1A processing, respectively (Sun, et al., Both farnesyltransferase and geranylgeranyltransferase I inhibitors are required for inhibition of oncogenic K-Ras prenylation but each alone is sufficient to suppress human tumor growth in nude mouse xenografts. Oncogene. 1998; 16:1467-1473).

[1] = test system: geranylgeranylation of Rap1A; assay: Whole cell inhibition of Rap1A processing (geranylgeranylation), immunoblot, oncogenic H-Ras-transformed NIH3T3 cells; type: cell-based, mouse; conditions: whole cells, oncogenic H-Ras-transformed NIH3T3, n = 3 unless stated, read-out: Rap1A processing IC50
Procedure: as §1, §2

hFTase = hFTase (Homo sapiens, UniProt P49354+P49356); assay: In vitro hFTase inhibition: incorporation of [3H]FPP into recombinant H-Ras-CVLS; type: biochemical; conditions: for selectivity (ratio of GGTase-I to FTase IC50s): GGTase-I IC50 / hFTase IC50; for GGTase-I/FTase selectivity: selectivity for hFTase over GGTase-I; for IC50: in vitro, average of three independent assays (n = 3) unless stated, errors are standard deviations
GGTase-I = GGTase-I (Homo sapiens, UniProt P49354+P53609); assay: In vitro GGTase-I inhibition: incorporation of [3H]GGPP into recombinant H-Ras-CVLL; type: biochemical; conditions: average of n = 3 unless stated, errors are standard deviations, read-out: GGTase-1 IC50

| IC50 (farnesylation of H-Ras) | IC50 ([1]; Mus musculus) | selectivity (ratio of GGTase-I to FTase IC50s) (hFTase) | GGTase-I/FTase selectivity (hFTase) | IC50 (hFTase) | IC50 (GGTase-I) | IC50 [1] | SMILES |
| --- | --- | --- | --- | --- | --- | --- | --- |
| 1.9 ± 1.2 µM | > 10 µM | – | – | – | – | – | Cn1cnc(S(=O)(=O)N(CCN(Cc2cncn2C)c2ccc(C#N)cc2)Cc2ccccc2)c1 [compound 1a] |
| > 10 µM | > 10 µM | >17 | – | – | – | – | Cn1cnc(S(=O)(=O)N(CCN(Cc2cncn2C)c2ccc(C#N)cc2)CC2CC2)c1 [1aw, [N-(Cyclopropylmethyl), N-{2-[(4-cyanophenyl)-(3-methyl-3H-imidazol-4-ylmethyl)-amino]-ethyl}]1-methyl-1H-imidazole-4-sulfonamide] |
| > 10 µM | > 10 µM | 7.1 | – | – | – | – | Cn1cnc(S(=O)(=O)N(CCN(Cc2cncn2C)c2ccc(C#N)cc2)CC(=O)NC(C)(C)C)c1 [1ae] |
| 0.09 ± 0.06 µM | > 10 µM | – | – | – | – | – | Cn1cncc1CN(CCN(Cc1ccccc1)S(=O)(=O)c1ccccn1)c1ccc(C#N)cc1 [compound 1f] |
| > 10 µM | > 10 µM | 5.3 | about 5 fold | – | – | – | C=C(C)CN(CCN(Cc1cncn1C)c1ccc(C#N)cc1)S(=O)(=O)c1cn(C)cn1 [1ac] |
| – | – | >1.9 | – | 5.3 ± 1.7 µM | > 10 µM | – | Cc1nn(C)c(C)c1CN(CCN(Cc1cncn1C)c1ccc(C#N)cc1)S(=O)(=O)c1cn(C)cn1 [compound 1an, [N-(1,3,5-Trimethyl-1H-pyrazol-4-ylmethyl), N-{2-[(4-cyanophenyl)-(3-methyl-3H-imidazol-4-ylmethyl)-amino]-ethyl}]1-methyl-1H-imidazole-4-sulfonamide] |
| – | > 10 µM | – | 333 fold | – | ≥ 10 µM | – | Cn1cncc1CN(CCN(Cc1ccccc1)S(=O)(=O)c1cccc2cccnc12)c1ccc(C#N)cc1 [1g] |
| > 10 µM | > 10 µM | >20 | – | – | – | – | Cn1cnc(S(=O)(=O)N(CCN(Cc2cncn2C)c2ccc(C#N)cc2)CC2CCN(c3ncccn3)CC2)c1 [compound 1az] |
| > 10 µM | > 10 µM | >1.6 | – | – | – | – | Cc1nc(C)c(CN(CCN(Cc2cncn2C)c2ccc(C#N)cc2)S(=O)(=O)c2cn(C)cn2)s1 [1am, [N-(2,4-Dimethyl-thiazol-5-ylmethyl), N-{2-[(4-cyanophenyl)-(3-methyl-3H-imidazol-4-ylmethyl)-amino]-ethyl}]1-methyl-1H-imidazole-4-sulfonamide] |
| 0.268 ± 0.212 µM | 6.2 ± 1.2 µM | 1.5 | – | – | – | – | Cn1cncc1CN(CCN(CC1CCCCC1)S(=O)(=O)c1ccccn1)c1ccc(C#N)cc1 [21a, N-(2-((4-cyanophenyl)((1-methyl-1H-imidazol-5-yl)methyl)amino)ethyl)-N-(cyclohexylmethyl)pyridine-2-sulfonamide] |
| 5.7 ± 1.2 µM | > 10 µM | 6.0 | – | 0.73 ± 0.02 µM | 4.4 µM | – | Cn1cnc(S(=O)(=O)N(CCN(Cc2cnc[nH]2)c2ccc(Br)cc2)Cc2ccccc2)c1 [compound 4] |
| 5.7 ± 1.5 µM | > 10 µM | 31 | – | – | – | – | C=C(Br)CN(CCN(Cc1cncn1C)c1ccc(C#N)cc1)S(=O)(=O)c1cn(C)cn1 [1ad] |
| – | > 10 µM | 200 | – | – | ≥ 10 µM | – | Cn1cncc1CN(CCN(Cc1ccccc1)S(=O)(=O)c1cccs1)c1ccc(C#N)cc1 [1e] |
| 0.5 ± 0.3 µM | > 10 µM | 63 | – | – | ≥ 10 µM | – | CN(C)c1cccc2c(S(=O)(=O)N(CCN(Cc3cncn3C)c3ccc(C#N)cc3)Cc3ccccc3)cccc12 [1h] |
| > 10 µM | > 10 µM | 18 | – | – | – | – | Cn1cnc(S(=O)(=O)N(CCN(Cc2cncn2C)c2ccc(C#N)cc2)Cc2ccc(C#N)cc2)c1 [1as] |
| 0.288 ± 0.251 µM | 19 µM | 2 | – | – | – | – | Cn1cncc1CN(CCN(CC1CCCCC1)S(=O)(=O)c1ccccn1)c1ccc(C#N)cn1 [21c, N-(2-((5-cyanopyridin-2-yl)((1-methyl-1H-imidazol-5-yl)methyl)amino)ethyl)-N-(cyclohexylmethyl)pyridine-2-sulfonamide] |
| > 10 µM | > 10 µM | >139 | – | – | – | – | Cn1cnc(S(=O)(=O)N(CCN(Cc2cncn2C)c2ccc(C#N)cc2)Cc2ccncc2)c1 [1af] |
| 6 µM | > 10 µM | >14 | – | – | – | – | C#CCN(CCN(Cc1cncn1C)c1ccc(C#N)cc1)S(=O)(=O)c1cn(C)cn1 [1aa] |
| > 2 µM | > 2 µM | >2.7 | – | – | – | – | Cn1cnc(S(=O)(=O)N(CCN(Cc2cncn2C)c2ccc(C#N)cc2)CC2CCN(C(=O)OC(C)(C)C)CC2)c1 [1ay] |
| – | – | 65 | – | 0.085 ± 0.0007 µM | 5.5 ± 2.7 µM | – | Cn1cncc1CN(CCN(Cc1ccccc1)S(=O)(=O)C1CC1)c1ccc(C#N)cc1 [1c, N-Benzyl, N-{2-[(4-cyanophenyl)-(3-methyl-3H-imidazol-4-ylmethyl)-amino]-ethyl}cyclopropanesulfonamide] |
| – | > 10 µM | 85 | – | 0.048 ± 0.035 µM | 4.1 ± 1.7 µM | – | CCCS(=O)(=O)N(CCN(Cc1cncn1C)c1ccc(C#N)cc1)Cc1ccccc1 [compound 1b, N-Benzyl, N-{2-[(4-cyanophenyl)-(3-methyl-3H-imidazol-4-ylmethyl)-amino]-ethyl}propane-1-sulfonamide] |
| 4.3 ± 1.5 µM | > 10 µM | 17 | – | – | – | – | Cn1cnc(S(=O)(=O)N(CCN(Cc2cncn2C)c2ccc(C#N)cc2)CCn2cccc2)c1 [1ag] |
| 0.65 µM | > 10 µM | 19 | – | – | – | – | Cn1cnc(S(=O)(=O)N(CCN(Cc2cncn2C)c2ccc(C#N)cc2)Cc2ccoc2)c1 [compound 1ah, [N-(Furan-3-ylmethyl), N-{2-[(4-cyanophenyl)-(3-methyl-3H-imidazol-4-ylmethyl)-amino]-ethyl}]1-methyl-1H-imidazole-4-sulfonamide] |
| 1.6 ± 1.3 µM | – | 6.7 | – | 0.079 ± 0.03 µM | 0.53 ± 0.17 µM | > 10 µM | Cn1cnc(S(=O)(=O)N(CCN(Cc2cncn2C)c2ccc(Br)cc2)Cc2ccccc2)c1 [compound 5] |
| – | > 10 µM | 4.3 | – | – | – | – | Cn1cnc(S(=O)(=O)N(CCN(Cc2cncn2C)c2ccc(C#N)cc2)Cc2ccc(-c3ccccc3)cc2)c1 [1au] |
| > 10 µM | > 10 µM | 2.7 | – | – | – | – | Cc1noc(C)c1CN(CCN(Cc1cncn1C)c1ccc(C#N)cc1)S(=O)(=O)c1cn(C)cn1 [compound 1al, [N-(3,5-Dimethyl-isoxazol-4-ylmethyl), N-{2-[(4-cyanophenyl)-(3-methyl-3H-imidazol-4-ylmethyl)-amino]-ethyl}]1-methyl-1H-imidazole-4-sulfonamide] |
